From patent publication US7595320B2, “Hydrazinocarbonyl-thieno[2,3-C]pyrazoles, process for preparing them, compositions containing them and use thereof” (Aventis Pharma S.A., priority 2005, dated 2009)
Counter-ions that a name gives are not always drawn.

How the values were obtained:
Format in all cases: biochemical
Aurora2 = target: T1, Aurora2 (Homo sapiens, UniProt O14965); experiment: Aurora2 enzymatic test, NuMA phosphorylation with [33P]ATP, Flashplate; conditions: whole recombinant protein, 1 μM ATP
T1 construct: Aurora2: whole recombinant protein comprising an N-terminal histidine tail; His tag (N); made in house; host or cells: E. coli
T1 sequence (O14965 1-403): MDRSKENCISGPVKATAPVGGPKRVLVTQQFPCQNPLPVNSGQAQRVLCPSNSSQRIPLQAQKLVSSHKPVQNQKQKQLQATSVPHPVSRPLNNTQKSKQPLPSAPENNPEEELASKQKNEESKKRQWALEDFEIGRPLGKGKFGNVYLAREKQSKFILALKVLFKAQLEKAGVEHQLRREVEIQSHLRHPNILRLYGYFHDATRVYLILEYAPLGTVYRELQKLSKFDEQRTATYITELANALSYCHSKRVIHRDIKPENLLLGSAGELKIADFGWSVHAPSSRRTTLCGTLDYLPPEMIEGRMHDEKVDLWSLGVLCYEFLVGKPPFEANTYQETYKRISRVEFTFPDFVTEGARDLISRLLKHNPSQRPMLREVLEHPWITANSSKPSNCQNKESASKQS
Method in brief: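 Full-length His-tagged Aurora2 (E. coli, >82% pure) at 10 nM phosphorylated 500 nM His-NuMA fragment on Ni-chelate Flashplates. Conditions were pH 7.5 Tris buffer with 10 mM MgCl2, 1 μM ATP plus [33P]ATP, 30 min at 37 °C.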

Aurora1 = target: T2, Aurora1 (Homo sapiens, UniProt Q96GD4); experiment: Aurora1 enzymatic test, NuMA phosphorylation with [33P]ATP, Flashplate; conditions: Aurora-B/INCENP-C3 recombinant complex, 1 μM ATP
T2 construct: His tag (N); made in house
Method in brief: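 Recombinant His-tagged Aurora-B/INCENP-C3 complex (10 nM) phosphorylates 500 nM His-NuMA fragment with 1 µM ATP plus [33P]ATP, 30 minutes at 37° C in Tris pH 7.5 with 5 mM MgCl2, on nickel-chelate Flashplates. Incorporated 33P counted; percent inhibition versus enzyme control after no-enzyme background subtraction.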

CDK2/cycline E = target: T3, CDK2/cycline E (Homo sapiens, UniProt P24941); experiment: CDK2/cyclineE Flashplate test in 96-well format; conditions: CDK2/cycline E complex, 1 μM ATP
T3 construct: made in house; host or cells: Sf21 insect cells (baculovirus coinfection)
Method in brief: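 Recombinant human CDK2/cyclin E (His-tagged cyclin E, coexpressed in Sf21 cells), 20 nM, phosphorylates biotinylated pRb peptide (10 μM) with 1 μM ATP plus [γ-33P]ATP in HEPES pH 7.5, MgCl2, DTT at 30 °C. Inhibitors tested at 10 μM down to 0.014 μM; 33P incorporation read by scintillation on streptavidin plates.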

Tie2 = target: T4, Tie2 (Homo sapiens, UniProt Q02763); experiment: Tie2 kinase test, phosphorylation of PLC with GST-Tie2; conditions: GST-Tie2 intracellular domain 776-1124
T4 construct: amino acids of the intracellular domain 776-1124; made in house; host or cells: baculovirus expression (pFastBacGT vector)
T4 sequence (Q02763 776-1124): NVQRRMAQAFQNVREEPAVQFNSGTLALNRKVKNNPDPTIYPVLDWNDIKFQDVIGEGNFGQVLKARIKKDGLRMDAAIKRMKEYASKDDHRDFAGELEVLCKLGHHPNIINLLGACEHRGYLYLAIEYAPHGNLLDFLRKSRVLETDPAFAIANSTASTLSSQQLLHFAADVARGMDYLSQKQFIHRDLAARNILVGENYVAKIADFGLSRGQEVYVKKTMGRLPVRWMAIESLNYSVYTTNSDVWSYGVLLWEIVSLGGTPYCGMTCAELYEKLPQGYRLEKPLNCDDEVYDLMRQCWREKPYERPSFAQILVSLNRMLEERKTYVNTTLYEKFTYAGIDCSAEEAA

T2 sequence (Q96GD4 whole entry, species assumed): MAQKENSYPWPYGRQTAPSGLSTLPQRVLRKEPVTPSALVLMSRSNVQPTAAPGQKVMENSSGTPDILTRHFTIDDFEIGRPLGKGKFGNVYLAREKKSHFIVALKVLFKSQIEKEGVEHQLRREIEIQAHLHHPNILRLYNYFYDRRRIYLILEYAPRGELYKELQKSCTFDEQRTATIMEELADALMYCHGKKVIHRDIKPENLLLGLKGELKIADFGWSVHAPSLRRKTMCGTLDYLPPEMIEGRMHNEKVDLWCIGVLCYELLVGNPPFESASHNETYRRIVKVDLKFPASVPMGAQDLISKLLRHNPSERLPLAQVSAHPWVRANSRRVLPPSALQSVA
T2 sequence (Q9NQS7 835-903 partner limits assumed, species assumed): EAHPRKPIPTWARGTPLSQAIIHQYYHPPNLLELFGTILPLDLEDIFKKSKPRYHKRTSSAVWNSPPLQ

Row | IC50 (Aurora2) | IC50 (Aurora1) | IC50 (CDK2/cycline E) | IC50 (Tie2) | Structure (SMILES)
1 | 4 nM | 4 nM | 121 nM | 29 nM | CN1CCN(c2ccc(C(=O)Nc3n[nH]c4sc(C(=O)NN(C)c5ccccc5)cc34)cc2)CC1 [Example 35, N-[5-(N′-methyl-N′-phenylhydrazinocarbonyl)-1H-thieno[2,3-c]pyrazol-3-yl]-4-(4-methylpiperazin-1-yl)benzamide]
2 | 5 nM | 9 nM | 1920 nM | 6 nM | CN1CCN(c2ccc(C(=O)Nc3n[nH]c4sc(C(=O)NN(CC5CCC5)c5ccc(Cl)cc5)cc34)cc2)CC1 [Example 36, N-{5-[N′-(4-chlorophenyl)-N′-cyclobutylmethylhydrazinocarbonyl]-1H-thieno[2,3-c]pyrazol-3-yl}-4-(4-methylpiperazin-1-yl)-benzamide]
3 | 20 nM | 32 nM | 54 nM | 56 nM | CCN(NC(=O)c1cc2c(NC(=O)c3ccc(N4CCN(C)CC4)cc3)n[nH]c2s1)c1ccc(F)cc1 [Example 37, N-{5-[N′-ethyl-N′-(4-fluorophenyl)hydrazinocarbonyl]-1H-thieno[2,3-c]pyrazol-3-yl}-4-(4-methylpiperazin-1-yl)benzamide]
4 | 4 nM | 21 nM | 214 nM | 58 nM | COCCN(NC(=O)c1cc2c(NC(=O)c3ccc(N4CCN(C)CC4)cc3)n[nH]c2s1)c1ccc(F)cc1 [Example 38, N-{5-[N′-(4-fluorophenyl)-N′-(2-methoxyethyl)-hydrazinocarbonyl]-1H-thieno[2,3-c]pyrazol-3-yl}-4-(4-methylpiperazin-1-yl)-benzamide]
5 | 27 nM | 15 nM | 53 nM | 22 nM | CCN(NC(=O)c1cc2c(NC(=O)c3ccc(N4CCN(C)CC4)cc3)n[nH]c2s1)c1ccccc1C [Example 39, N-[5-(N′-ethyl-N′-o-tolylhydrazinocarbonyl)-1H-thieno[2,3-c]pyrazol-3-yl]-4-(4-methylpiperazin-1-yl)benzamide]
6 | 17 nM | 11 nM | 105 nM | 25 nM | CCN(NC(=O)c1cc2c(NC(=O)c3ccc(N4CCN(C)CC4)cc3)n[nH]c2s1)c1cccc(C)c1 [Example 40, N-[5-(N′-ethyl-N′-m-tolylhydrazinocarbonyl)-1H-thieno[2,3-c]pyrazol-3-yl]-4-(4-methylpiperazin-1-yl)benzamide]
7 | 6 nM | 24 nM | 1120 nM | 61 nM | CC(C)CN(NC(=O)c1cc2c(NC(=O)c3ccc(N4CCN(C)CC4)cc3)n[nH]c2s1)c1ccc(F)cc1 [Example 42, N-{5-[N′-(4-fluorophenyl)-N′-isobutylhydrazinocarbonyl]-1H-thieno[2,3-c]pyrazol-3-yl}-4-(4-methylpiperazin-1-yl)benzamide]
8 | 1 nM | 5 nM | 32 nM | 8 nM | CCN(NC(=O)c1cc2c(NC(=O)c3ccc(N4CCN(C)CC4)cc3)n[nH]c2s1)c1cccc(Br)c1 [Example 43, N-{5-[N′-(3-bromophenyl)-N′-ethylhydrazinocarbonyl]-1H-thieno[2,3-c]pyrazol-3-yl}-4-(4-methylpiperazin-1-yl)benzamide]
9 | 6 nM | 21 nM | 201 nM | 107 nM | CN1CCCN(c2ccc(C(=O)Nc3n[nH]c4sc(C(=O)NN(C)c5ccccc5)cc34)cn2)CC1 [Example 44, 6-(4-methyl[1,4]diazepan-1-yl)-N-[5-(N′-methyl-N′-phenylhydrazinocarbonyl)-1H-thieno[2,3-c]pyrazol-3-yl]nicotinamide]

The remaining lines, values behind:

Row | Structure (SMILES) | IC50 (Aurora2) | IC50 (Aurora1) | IC50 (CDK2/cycline E) | IC50 (Tie2)
10 | CN(NC(=O)c1cc2c(NC(=O)c3cccc(CN4CCOCC4)c3)n[nH]c2s1)c1ccc(Cl)cc1 [Example 22b, N-{5-[N′-(4-chlorophenyl)-N′-methylhydrazinocarbonyl]-1H-thieno[2,3-c]pyrazol-3-yl}-3-morpholin-4-ylmethylbenzamide] | 762 nM | 956 nM | 703 nM | 3190 nM
11 | CCN(CC)CCNCc1ccc(C(=O)Nc2n[nH]c3sc(C(=O)NN(C)c4ccccc4)cc23)cc1 [Example 23a, 4-[(2-diethylaminoethylamino)methyl]-N-[5-(N′-methyl-N′-phenylhydrazinocarbonyl)-1H-thieno[2,3-c]pyrazol-3-yl]-benzamide] | 65 nM | 199 nM | 143 nM | 431 nM
12 | CCN(CC)CCNCc1ccc(C(=O)Nc2n[nH]c3sc(C(=O)NN(C)c4ccc(Cl)cc4)cc23)cc1 [Example 23b, N-{5-[N′-(4-chlorophenyl)-N′-methylhydrazinocarbonyl]-1H-thieno[2,3-c]pyrazol-3-yl}-4-[(2-diethylaminoethylamino)methyl]benzamide] | 101 nM | 259 nM | 138 nM | 543 nM
13 | CC(C)N(Cc1ccc(C(=O)Nc2n[nH]c3sc(C(=O)NN(C)c4ccccc4)cc23)cc1)C(C)C [Example 25, 4-[(diisopropylamino)methyl]-N-[5-(N′-methyl-N′-phenylhydrazinocarbonyl)-1H-thieno[2,3-c]pyrazol-3-yl]benzamide trifluoroacetate] | 25 nM | 249 nM | 317 nM | 328 nM
14 | COc1ccc(C(=O)Nc2n[nH]c3sc(C(=O)NNCc4ccccc4)cc23)cc1 [Example 26, N-[5-(N′-benzylhydrazinocarbonyl)-1H-thieno[2,3-c]pyrazol-3-yl]-4-methoxybenzamide] | 23 nM | 42 nM | 75 nM | 175 nM
15 | COc1ccc(C(=O)Nc2n[nH]c3sc(C(=O)NNc4ccccn4)cc23)cc1 [Example 27, 4-methoxy-N-[5-(N′-pyrid-2-ylhydrazinocarbonyl)-1H-thieno[2,3-c]pyrazol-3-yl]benzamide] | 31 nM | 51 nM | 669 nM | 294 nM
16 | CN1CCN(c2ccc(C(=O)Nc3n[nH]c4sc(C(=O)NN(C)c5ccc(Cl)cc5)cc34)cc2)CC1 [Example 28, N-{5-[N′-(4-chlorophenyl)-N′-methylhydrazinocarbonyl]-1H-thieno[2,3-c]pyrazol-3-yl}-4-(4-methylpiperazin-1-yl)benzamide] | 2 nM | 6 nM | 132 nM | 106 nM
17 | COC[C@@H]1CCCN1NC(=O)c1cc2c(NC(=O)c3ccc(N4CCN(C)CC4)cc3)n[nH]c2s1 [Example 29, N-(2-methoxymethylpyrrolidin-1-yl)-3-[4-(4-methylpiperazin-1-yl)benzoylamino]-1H-thieno[2,3-c]pyrazole-5-carboxamide] | 11 nM | 28 nM | 585 nM | 163 nM
18 | CN1CCN(c2ccc(C(=O)Nc3n[nH]c4sc(C(=O)NN(C)Cc5ccccc5)cc34)cc2)CC1 [Example 30, N-[5-(N′-benzyl-N′-methylhydrazinocarbonyl)-1H-thieno[2,3-c]pyrazol-3-yl]-4-(4-methylpiperazin-1-yl)benzamide] | 6 nM | 12 nM | 221 nM | 128 nM
19 | CN1CCN(c2ccc(C(=O)Nc3n[nH]c4sc(C(=O)NN5CCCCC5)cc34)cc2)CC1 [Example 31, N-(piperidin-1-yl)-3-[4-(4-methylpiperazin-1-yl)benzoylamino]-1H-thieno[2,3-c]pyrazole-5-carboxamide] | 26 nM | 96 nM | 275 nM | 3060 nM
20 | CN1CCN(c2ccc(C(=O)Nc3n[nH]c4sc(C(=O)NNCc5ccccc5)cc34)cc2)CC1 [Example 32, N-[5-(N′-benzylhydrazinocarbonyl)-1H-thieno[2,3-c]pyrazol-3-yl]-4-(4-methylpiperazin-1-yl)benzamide] | 4 nM | 25 nM | 109 nM | 38 nM
21 | CN1CCN(c2ccc(C(=O)Nc3n[nH]c4sc(C(=O)NN(Cc5ccccc5)c5ccccc5)cc34)cc2)CC1 [Example 34, N-[5-(N′-benzyl-N′-phenylhydrazinocarbonyl)-1H-thieno[2,3-c]pyrazol-3-yl]-4-(4-methylpiperazin-1-yl)benzamide] | 5 nM | 13 nM | 1580 nM | 38 nM
